# Laboratory results published in patent US8822449B2, “Substituted aminoindanes and analogs thereof, and the pharmaceutical use thereof” (Sanofi, priority 2008, dated 2014).
# Target: T1, sodium-proton exchanger of subtype 3 (NHE3) (Homo sapiens, UniProt P48764)
# T1 construct: expressed in transfected cells
# T1 sequence (P48764 26-834): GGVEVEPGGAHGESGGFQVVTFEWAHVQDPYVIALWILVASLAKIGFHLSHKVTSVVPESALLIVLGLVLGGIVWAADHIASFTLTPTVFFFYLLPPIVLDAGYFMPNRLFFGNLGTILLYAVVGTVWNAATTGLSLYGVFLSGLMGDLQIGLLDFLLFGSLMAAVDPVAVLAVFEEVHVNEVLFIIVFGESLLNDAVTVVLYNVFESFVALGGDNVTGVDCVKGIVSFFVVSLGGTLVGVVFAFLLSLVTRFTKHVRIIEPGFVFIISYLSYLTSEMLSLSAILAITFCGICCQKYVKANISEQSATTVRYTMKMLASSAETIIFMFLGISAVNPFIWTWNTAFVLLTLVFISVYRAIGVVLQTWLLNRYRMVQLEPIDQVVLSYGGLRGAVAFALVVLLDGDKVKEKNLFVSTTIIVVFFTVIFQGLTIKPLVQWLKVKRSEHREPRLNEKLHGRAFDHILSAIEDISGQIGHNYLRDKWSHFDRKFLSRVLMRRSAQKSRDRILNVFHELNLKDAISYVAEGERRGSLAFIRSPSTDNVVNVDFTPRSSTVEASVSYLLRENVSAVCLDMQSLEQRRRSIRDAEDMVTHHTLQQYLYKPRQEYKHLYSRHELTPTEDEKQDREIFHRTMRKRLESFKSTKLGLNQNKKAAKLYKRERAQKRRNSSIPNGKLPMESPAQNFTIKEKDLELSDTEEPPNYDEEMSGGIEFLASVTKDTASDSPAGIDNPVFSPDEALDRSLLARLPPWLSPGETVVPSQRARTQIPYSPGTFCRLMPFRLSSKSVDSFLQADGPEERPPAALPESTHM
# Test: Recovery of intracellular pH (pHi) after acidification in LAP1 cells stably expressing NHE3 (BCECF fluorescence, FLIPR)
# Format: cell-based
# Settings: LAP1 cells stably expressing NHE3; pH recovery after acidification; range 1 is % inhibition at 10 μM; read-out: Activity range (inhibitory effect on NHE3)
IC50 [nM],inhibition at 10 µM [%],SMILES
1000 to 10000,,"N[C@H]1CCCN([C@@H]2Cc3ccccc3[C@H]2Oc2ccc(-n3ccnc3)cc2)C1 (racemic) [Example 181, (S)-1-[rac-trans-(1,2)-1-(4-imidazol-1-ylphenoxy)indan-2-yl]piperidin-3-ylamine]"
1000 to 10000,,"CN(C1CCNCC1)[C@@H]1Cc2ccccc2[C@H]1Oc1ccc(N2CCNCC2)cc1 (racemic) [Example 630, methyl-[rac-trans-(1,2)-1-(4-piperazin-1-ylphenoxy)indan-2-yl]piperidin-4-ylamine]"
< 1000,,"Cc1nnc(C)n1-c1ccc(O[C@H]2c3ccccc3C[C@@H]2N2CCCC2)cc1 (racemic) [Example 405, 3,5-dimethyl-4-[4-(rac-trans-(1,2)-2-pyrrolidin-1-ylindan-1-yloxy)phenyl]-4H-[1,2,4]triazole]"
< 1000,,"N[C@@H]1CCCN([C@H]2Cc3c(Cl)cc(Cl)cc3[C@@H]2Oc2ccc(-n3cncn3)cc2)C1 [Example 97, (R)-1-[trans-(1S,2S)-4,6-dichloro-1-(4-[1,2,4]triazol-1-ylphenoxy)indan-2-yl]piperidin-3-ylamine]"
1000 to 10000,,"CN(C)C(=O)Cc1ccc(O[C@H]2c3ccccc3C[C@@H]2N2CCCC2)cc1 (racemic) [Example 634, N,N-dimethyl-2-[4-(rac-trans-(1,2)-2-pyrrolidin-1-ylindan-1-yloxy)phenyl]acetamide]"
,20 to 50,"O=[N+]([O-])c1ccc(O[C@@H]2c3ccccc3C[C@@H]2N2CCOCC2)c(Cl)c1 (racemic) [Example 478, 4-[(1R,2S)-1-(2-chloro-4-nitrophenoxy)indan-2-yl]morpholine]"
,20 to 50,"Cc1c(O[C@H]2c3cc(Cl)cc(Cl)c3C[C@@H]2N2CC[C@@H](O)C2)cccc1-n1ccn(C)c1=O [Example 312, 1-{3-[(1S,2S)-4,6-dichloro-2-((R)-3-hydroxypyrrolidin-1-yl)indan-1-yloxy]-2-methylphenyl}-3-methyl-1,3-dihydroimidazol-2-one]"
< 1000,,"Cc1nnc(C)n1-c1ccc(O[C@H]2c3cc(Cl)cc(Cl)c3C[C@@H]2N2CC[C@@H](C#N)C2)cc1 [Example 134, (R)-1-{trans-(1S,2S)-4,6-dichloro-1-[4-(3,5-dimethyl-[1,2,4]triazol-4-yl)phenoxy]indan-2-yl}pyrrolidine-3-carbonitrile]"
,20 to 50,"N[C@@H]1CCCN([C@H]2CCc3ccccc3[C@@H]2Oc2ccc(F)cc2)C1 (racemic) [Example 70, (R)-1-[rac-trans-(1,2)-1-(4-fluorophenoxy)-1,2,3,4-tetrahydronaphthalen-2-yl]piperidin-3-ylamine]"
,20 to 50,"Cn1ccn(-c2cc(O[C@H]3c4cc(Cl)cc(Cl)c4C[C@@H]3N3CC[C@@H](O)C3)ccc2Cl)c1=O [Example 310, 1-{2-chloro-5-[(1S,2S)-4,6-dichloro-2-((R)-3-hydroxypyrrolidin-1-yl)indan-1-yloxy]phenyl}-3-methyl-1,3-dihydroimidazol-2-one]"
< 1000,,"NC(=O)c1cc(Cl)ccc1O[C@H]1c2ccccc2CC[C@@H]1N1CCC[C@H](N)C1 (racemic) [Example 370, 2-[rac-trans-(1,2)-2-((S)-3-aminopiperidin-1-yl)-1,2,3,4-tetrahydronaphthalen-1-yloxy]-5-chlorobenzamide]"
1000 to 10000,,"CC(C)c1nccn1-c1ccc(O[C@H]2c3cc(Cl)cc(Cl)c3C[C@@H]2N2CC[C@@H](O)C2)cc1 [Example 732, (R)-1-{trans-(1S,2S)-4,6-Dichloro-1-[4-(2-isopropyl-imidazol-1-yl)-phenoxy]-indan-2-yl}-pyrrolidin-3-ol]"
1000 to 10000,,"NC(=O)c1cccc(O[C@@H]2c3ccccc3C[C@H]2N2CCC[C@H](N)C2)c1 (racemic) [Example 413, 3-[rac-trans-(1,2)-2-((S)-3-aminopiperidin-1-yl)indan-1-yloxy]benzamide]"
1000 to 10000,,"NS(=O)(=O)c1ccc(O[C@H]2c3cc(Cl)cc(F)c3C[C@@H]2NC2CCCC2)c(F)c1 [Example 750, 4-(trans-(1S,2S)-6-Chloro-2-cyclopentylamino-4-fluoro-indan-1-yloxy)-3-fluoro-benzenesulfonamide]"
,20 to 50,"COc1cc(Cl)cc(O[C@H]2c3ccccc3CC[C@@H]2N2CCC[C@@H](N)C2)c1 (racemic) [Example 54, (R)-1-[rac-trans-(1,2)-1-(3-chloro-5-methoxyphenoxy)-1,2,3,4-tetrahydronaphthalen-2-yl]piperidin-3-ylamine]"
< 1000,,"CS(=O)(=O)c1ccc(O[C@H]2c3cc(Cl)cc(Cl)c3C[C@@H]2N2CC[C@@H](F)C2)cc1 [Example 100, (R)-1-[trans-(1S,2S)-4,6-dichloro-1-(4-methanesulfonylphenoxy)indan-2-yl]-3-fluoropyrrolidine]"
,20 to 50,"NS(=O)(=O)c1ccc(O[C@H]2c3cccc(Cl)c3C[C@@H]2N2CCCC2)cc1 (racemic) [Example 471, 4-(rac-trans-(1,2)-4-chloro-2-pyrrolidin-1-ylindan-1-yloxy)benzenesulfonamide]"
1000 to 10000,,"N[C@@H]1CCCN([C@H]2CCc3ccccc3[C@@H]2Oc2ccc(Br)cc2-c2cc[nH]n2)C1 (racemic) [Example 117, (R)-1-{rac-trans-(1,2)-1-[4-bromo-2-(1H-pyrazol-3-yl)phenoxy]-1,2,3,4-tetrahydronaphthalen-2-yl}piperidin-3-ylamine]"
1000 to 10000,,"N[C@@H]1CCCN([C@@H]2Cc3ccccc3[C@H]2Oc2ccc3oc(=O)sc3c2)C1 (racemic) [Example 579, 5-[rac-trans-(1,2)-2-((R)-3-aminopiperidin-1-yl)indan-1-yloxy]benzo[1,3]oxathiol-2-one]"
,20 to 50,"N#Cc1ccc(O[C@H]2c3ccccc3CC[C@@H]2N2CCC[C@H](N)C2)cc1F (racemic) [Example 530, 4-[rac-trans-(1,2)-2-((S)-3-aminopiperidin-1-yl)-1,2,3,4-tetrahydronaphthalen-1-yloxy]-2-fluorobenzonitrile]"
,20 to 50,"CC(=O)Nc1cccc(O[C@H]2c3ccccc3C[C@@H]2N2CCNCC2)c1 (racemic) [Example 639, N-[3-(rac-trans-(1,2)-2-piperazin-1-ylindan-1-yloxy)phenyl]acetamide]"
< 1000,,"CN1CC(=O)N(c2ccc(O[C@H]3c4cc(Cl)cc(Cl)c4C[C@@H]3N3CC[C@@H](O)C3)c(Cl)c2)C1=O [Example 422, 3-{3-chloro-4-[(1S,2S)-4,6-dichloro-2-((R)-3-hydroxypyrrolidin-1-yl)indan-1-yloxy]phenyl}-1-methylimidazolidine-2,4-dione]"
1000 to 10000,,"NCC1CCN([C@@H]2Cc3ccccc3[C@H]2Oc2ccc(S(N)(=O)=O)c(Cl)c2Cl)C1 (mixture of isomers) [Example 538, 4-[rac-trans-(1,2)-2-(3-aminomethylpyrrolidin-1-yl)indan-1-yloxy]-2,3-dichlorobenzenesulfonamide]"
< 1000,,"Cc1nnc(C(C)C)n1-c1ccc(O[C@H]2c3cc(Cl)cc(Cl)c3C[C@@H]2N2CC[C@@H](O)C2)cc1 [Example 715, (R)-1-{trans-(1S,2S)-4,6-Dichloro-1-[4-(3-isopropyl-5-methyl-[1,2,4]triazol-4-yl)-phenoxy]-indan-2-yl}-pyrrolidin-3-ol]"
1000 to 10000,,"O=C1CCC(=O)N1c1ccc(Cl)c(O[C@H]2c3cc(Cl)cc(Cl)c3C[C@@H]2N2CC[C@@H](O)C2)c1 [Example 337, 1-{4-chloro-3-[(1S,2S)-4,6-dichloro-2-((R)-3-hydroxypyrrolidin-1-yl)indan-1-yloxy]phenyl}pyrrolidine-2,5-dione]"
,20 to 50,"CS(=O)(=O)c1ccccc1O[C@H]1c2cc(Cl)cc(Cl)c2C[C@@H]1N1CCCC1 [Example 247, 1-[(1S,2S)-4,6-dichloro-1-(2-methanesulfonylphenoxy)indan-2-yl]pyrrolidine]"
< 1000,,"Cc1c(O[C@H]2c3cc(Cl)cc(Cl)c3C[C@@H]2N2CC[C@@H](O)C2)ccc(-n2c(C)nnc2C)c1C [Example 127, (R)-1-{trans-(1S,2S)-4,6-dichloro-1-[4-(3,5-dimethyl-[1,2,4]triazol-4-yl)-2,3-dimethylphenoxy]indan-2-yl}pyrrolidin-3-ol]"
1000 to 10000,,"CCc1nnc(C(C)C)n1-c1ccc(O[C@H]2c3cc(Cl)cc(F)c3C[C@@H]2N2CC[C@@H](O)C2)cc1 [Example 722, (R)-1-{trans-(1S,2S)-6-Chloro-1-[4-(3-ethyl-5-isopropyl-[1,2,4]triazol-4-yl)-phenoxy]-4-fluoro-indan-2-yl}-pyrrolidin-3-ol]"
1000 to 10000,,"N[C@@H]1CCCN([C@@H]2Cc3ccccc3[C@H]2Oc2ccc3c(c2)OCO3)C1 (racemic) [Example 83, (R)-1-[rac-trans-(1,2)-1-(benzo[1,3]dioxol-5-yloxy)indan-2-yl]piperidin-3-ylamine]"

SMILES,IC50 [nM],inhibition at 10 µM [%]
"CCN(CC)[C@@H]1Cc2ccccc2[C@H]1Oc1cccc(N2CCNCC2)c1 (racemic) [Example 626, Diethyl-[rac-trans-(1,2)-1-(3-piperazin-1-ylphenoxy)indan-2-yl]amine]",1000 to 10000,
